Reference: patent US20160199351A1, “COMPOSITIONS AND METHODS FOR INHIBITING FUNGAL INFECTIONS” (priority 2015, published 2016)
≈ marks a conversion by molar mass, not a printed value. Like-named read-outs stand apart in the source and are kept apart here.

Key:
C. parapsilosis = test: MIC against Candida species (Table 4); conditions: 48 h
C. krusei = test: MIC against Candida species (Table 4); conditions: Pichia kudriavzevii; for MIC: read-out: MIC 100%
C. guilliermondii = test: MIC against Candida species (Table 4); conditions: Meyerozyma guilliermondii
Pneumocystis carinii = test: In vitro ATP content of Pneumocystis (luciferin-luciferase assay); conditions: for IC50: Pneumocystis carinii, read-out: IC50 (reduction in ATP)
Pneumocystis murina = test: as above; conditions: for IC50: Pneumocystis murina, read-out: IC50 (reduction in ATP)

NCC(=O)Nc1ccc(-n2nc(C(F)(F)F)cc2-c2ccc3c(ccc4ccccc43)c2)cc1 [AR-12, 2-amino-N-(4-(5-(phenanthren-2-yl)-3-(trifluoromethyl)-1H-pyrazol-1-yl)phenyl)acetamide]
MIC (C. parapsilosis; read-out: MIC 100%, isolate CP-2, 48 hrs): 4 µg/mL (≈ 8.69 µM)
MIC (C. parapsilosis; read-out: MIC 100%, isolate CP-3, 48 hrs): 4 µg/mL (≈ 8.69 µM)
MIC (C. parapsilosis; read-out: MIC 100%, isolate CP-4, 48 hrs): 4 µg/mL (≈ 8.69 µM)
MIC (C. parapsilosis; read-out: MIC 100%, isolate CP-5, 48 hrs): 4 µg/mL (≈ 8.69 µM)
MIC (C. parapsilosis; read-out: MIC 100%, isolate CP-6, 48 hrs): 4 µg/mL (≈ 8.69 µM)
MIC (C. parapsilosis; read-out: MIC 100%, isolate CP-7, 48 hrs): 4 µg/mL (≈ 8.69 µM)
MIC (C. parapsilosis; read-out: MIC 100%, isolate QC, 48 hrs): 4 µg/mL (≈ 8.69 µM)
MIC50 (C. krusei; 24 h): 2 µg/mL (≈ 4.34 µM)
MIC (C. krusei; 24 h): 4 µg/mL (≈ 8.69 µM)
MIC50 (C. krusei; 48 h): 4 µg/mL (≈ 8.69 µM)
MIC (C. krusei; 48 h): 4 µg/mL (≈ 8.69 µM)
MIC50 (C. guilliermondii; 24 h, isolate Cgu-1, 24 hrs): 2 µg/mL (≈ 4.34 µM)
MIC50 (C. guilliermondii; 24 h, isolate Cgu-2, 24 hrs): 2 µg/mL (≈ 4.34 µM)
MIC50 (C. guilliermondii; 24 h, isolate Cgu-3, 24 hrs): 2 µg/mL (≈ 4.34 µM)
MIC50 (C. guilliermondii; 24 h, isolate Cgu-4, 24 hrs): 2 µg/mL (≈ 4.34 µM)
MIC50 (C. guilliermondii; 24 h, isolate Cgu-5, 24 hrs): 4 µg/mL (≈ 8.69 µM)
MIC50 (C. guilliermondii; 24 h, isolate Cgu-6, 24 hrs): 4 µg/mL (≈ 8.69 µM)
MIC50 (C. guilliermondii; 24 h, isolate Cgu-7, 24 hrs): 2 µg/mL (≈ 4.34 µM)
MIC (C. guilliermondii; 24 h, read-out: MIC 100%, isolate Cgu-1, 24 hrs): 2 µg/mL (≈ 4.34 µM)
MIC (C. guilliermondii; 24 h, read-out: MIC 100%, isolate Cgu-2, 24 hrs): 2 µg/mL (≈ 4.34 µM)
MIC (C. guilliermondii; 24 h, read-out: MIC 100%, isolate Cgu-3, 24 hrs): 2 µg/mL (≈ 4.34 µM)
MIC (C. guilliermondii; 24 h, read-out: MIC 100%, isolate Cgu-4, 24 hrs): 2 µg/mL (≈ 4.34 µM)
MIC (C. guilliermondii; 24 h, read-out: MIC 100%, isolate Cgu-5, 24 hrs): 4 µg/mL (≈ 8.69 µM)
MIC (C. guilliermondii; 24 h, read-out: MIC 100%, isolate Cgu-6, 24 hrs): 4 µg/mL (≈ 8.69 µM)
MIC (C. guilliermondii; 24 h, read-out: MIC 100%, isolate Cgu-7, 24 hrs): 2 µg/mL (≈ 4.34 µM)
MIC50 (C. guilliermondii; 48 h, isolate Cgu-1, 48 hrs): 4 µg/mL (≈ 8.69 µM)
MIC50 (C. guilliermondii; 48 h, isolate Cgu-2, 48 hrs): 2 µg/mL (≈ 4.34 µM)
MIC50 (C. guilliermondii; 48 h, isolate Cgu-3, 48 hrs): 2 µg/mL (≈ 4.34 µM)
MIC50 (C. guilliermondii; 48 h, isolate Cgu-4, 48 hrs): 2 µg/mL (≈ 4.34 µM)
MIC50 (C. guilliermondii; 48 h, isolate Cgu-5, 48 hrs): 4 µg/mL (≈ 8.69 µM)
MIC50 (C. guilliermondii; 48 h, isolate Cgu-6, 48 hrs): 4 µg/mL (≈ 8.69 µM)
MIC50 (C. guilliermondii; 48 h, isolate Cgu-7, 48 hrs): 4 µg/mL (≈ 8.69 µM)
MIC (C. guilliermondii; 48 h, read-out: MIC 100%, isolate Cgu-1, 48 hrs): 4 µg/mL (≈ 8.69 µM)
MIC (C. guilliermondii; 48 h, read-out: MIC 100%, isolate Cgu-2, 48 hrs): 4 µg/mL (≈ 8.69 µM)
MIC (C. guilliermondii; 48 h, read-out: MIC 100%, isolate Cgu-3, 48 hrs): 4 µg/mL (≈ 8.69 µM)
MIC (C. guilliermondii; 48 h, read-out: MIC 100%, isolate Cgu-4, 48 hrs): 2 µg/mL (≈ 4.34 µM)
MIC (C. guilliermondii; 48 h, read-out: MIC 100%, isolate Cgu-5, 48 hrs): 4 µg/mL (≈ 8.69 µM)
MIC (C. guilliermondii; 48 h, read-out: MIC 100%, isolate Cgu-6, 48 hrs): 4 µg/mL (≈ 8.69 µM)
MIC (C. guilliermondii; 48 h, read-out: MIC 100%, isolate Cgu-7, 48 hrs): 4 µg/mL (≈ 8.69 µM)
IC50 (Pneumocystis carinii; 24 h): 41.3 µg/mL (≈ 89.7 µM)
IC50 (Pneumocystis carinii; 48 h): 18.3 µg/mL (≈ 39.8 µM)
IC50 (Pneumocystis carinii; 72 h): 4.82 µg/mL (≈ 10.5 µM)
Pm % Reduction in ATP/Vehicle Control (Pneumocystis carinii; Table 2, 1 μg/ml, 24 hours): 0%
Pm % Reduction in ATP/Vehicle Control (Pneumocystis carinii; Table 2, 1 μg/ml, 48 hours): 1.76%
Pm % Reduction in ATP/Vehicle Control (Pneumocystis carinii; Table 2, 1 μg/ml, 72 hours): 0.49%
Pm % Reduction in ATP/Vehicle Control (Pneumocystis carinii; Table 2, 10 μg/ml, 24 hours): 0%
Pm % Reduction in ATP/Vehicle Control (Pneumocystis carinii; Table 2, 10 μg/ml, 48 hours): 16.68%
Pm % Reduction in ATP/Vehicle Control (Pneumocystis carinii; Table 2, 10 μg/ml, 72 hours): 59.81%
Pm % Reduction in ATP/Vehicle Control (Pneumocystis carinii; Table 2, 100 μg/ml, 24 hours): 97.31%
Pm % Reduction in ATP/Vehicle Control (Pneumocystis carinii; Table 2, 100 μg/ml, 48 hours): 97.2%
Pm % Reduction in ATP/Vehicle Control (Pneumocystis carinii; Table 2, 100 μg/ml, 72 hours): 99.04%
IC50 (Pneumocystis murina; 24 h): 9.69 µg/mL (≈ 21 µM)
IC50 (Pneumocystis murina; 48 h): 2.77 µg/mL (≈ 6.02 µM)
IC50 (Pneumocystis murina; 72 h): 1.78 µg/mL (≈ 3.87 µM)
Pm % Reduction in ATP/Vehicle Control (Pneumocystis murina; Table 3, 1 μg/ml, 24 hours): 3.51%
Pm % Reduction in ATP/Vehicle Control (Pneumocystis murina; Table 3, 1 μg/ml, 48 hours): 5.76%
Pm % Reduction in ATP/Vehicle Control (Pneumocystis murina; Table 3, 1 μg/ml, 72 hours): 15.48%
Pm % Reduction in ATP/Vehicle Control (Pneumocystis murina; Table 3, 10 μg/ml, 24 hours): 54.02%
Pm % Reduction in ATP/Vehicle Control (Pneumocystis murina; Table 3, 10 μg/ml, 48 hours): 85.38%
Pm % Reduction in ATP/Vehicle Control (Pneumocystis murina; Table 3, 10 μg/ml, 72 hours): 94.23%
Pm % Reduction in ATP/Vehicle Control (Pneumocystis murina; Table 3, 100 μg/ml, 24 hours): 83.6%
Pm % Reduction in ATP/Vehicle Control (Pneumocystis murina; Table 3, 100 μg/ml, 48 hours): 97.76%
Pm % Reduction in ATP/Vehicle Control (Pneumocystis murina; Table 3, 100 μg/ml, 72 hours): 98.09%
